Results as given in publication PMC12565300, “Novel Cyclic Tetrapeptides as Neuraminidase Inhibitors from a Sponge-Associated Penicillium sp. SCSIO41035” (Marine Drugs, 2025).
pIC50: −log10 of the molar value. Read-outs that look alike come from different tables or passages of the source.

Assays:
[1] = test system: neuraminidase; details: 100 µg/mL; Mean ± SD (n not given); fluorogenic substrate, 37 °C, 30 min; ex 322 nm, em 450 nm; compound in DMSO
Description: 4.8. Neuraminidase Inhibitory Assay
The neuraminidase inhibitory activity was evaluated using a Neuraminidase In-hibitor Screening Kit (Beyotime Institute of Biotechnology, Shanghai, China). Assays were carried out in 96-well plates. For each well, 70 μL of neuraminidase assay buffer, 10 μL of neuraminidase solution, and 10 μL of test compound (dissolved in DMSO; final con-centration 100 μg/mL) were gently mixed. The reaction was initiated by adding 10 μL of the fluorogenic substrate to each well, and the plate was incubated at 37 °C for 30 min. Fluorescence was measured on an EnSpire microplate reader with excitation at 322 nm and emission at 450 nm. The fluorescence intensity of neuraminidase was measured at several concentrations to generate a standard curve relating fluorescence signal to enzyme concentration. The fluorescence corresponding to the highest neuraminidase concentration was set as 0% inhibition. Each sample well initially contained neuraminidase at this concentration, and the residual neuraminidase concentration after the reaction was determined from the measured fluorescence using the standard-curve equation. The inhibition percentages were then calculated.

[2] = test system: two human carcinoma cell lines; details: ref [7], cited from earlier work
From the text: Cyclic tetrapeptides are a class of natural products with significant potential in drug discovery, characterized by their unique structural features and diverse biological activities. Their cyclic structure confers stability and contributes to their potency, while their low molecular weight and favorable lipophilicity enhance drug-like properties. […] The presence of hydr ...

Compound	Inhibition Rate (neuraminidase inhibitory activity) [1] [%]	pIC50 ([2]; first of two human carcinoma cell lines, read-out: IC50 against human carcinoma cell line (first of two, unnamed))	pIC50 ([2]; second of two human carcinoma cell lines, read-out: IC50 against human carcinoma cell line (second of two, unnamed))
Penicopeptide F [Compound 5]	85.40 ± 0.85	–	–
CC(C)/C=C1\NC(=O)[C@H](CCC(N)=O)n2c1nc1ccccc1c2=O [Compound 10, aurantiomide C]	67.54 ± 0.87	–	–
Penicopeptide E [Compound 4]	74.01 ± 1.32	–	–
Penicopeptide C [Compound 2]	43.16 ± 1.23	–	–
Asperterrestide A	–	5.21	5.19
Penicopeptide B [Compound 1]	52.90 ± 0.37	–	–
Penicopeptide G [Compound 6]	63.65 ± 0.67	–	–
O=C1N[C@@]2(CO)c3nc4ccccc4c(=O)n3[C@@H]1C[C@@]21C(=O)Nc2ccccc21 [Compound 9, serantrypinone]	51.67 ± 0.42	–	–
CC12NC(=O)C(C[C@]13C(=O)Nc1ccccc13)n1c2nc2ccccc2c1=O (stereo partly drawn) [Compound 8, alantrypinone]	43.85 ± 1.41	–	–
Penicopeptide H [Compound 7]	57.78 ± 0.44	–	–
Penicopeptide D [Compound 3]	58.67 ± 3.51	–	–
